# Data published in patent US6857485B2, “Shale hydration inhibition agent and method of use” (M-I LLC, priority 2000, dated 2005).
# Key:
# [1] = Viscosity of product from neutralization of Jeffamine D-230 with acids; format: physicochemical; settings: for Viscosity (centipoises) at pH 9.5: Jeffamine D-230 neutralized with the acid to pH 9.5; for Viscosity (centipoises) at pH 10.5: Jeffamine D-230 neutralized with the acid to pH 10.5
# Text: Synthesis of the salt: Synthesis of the salts from the free amine compounds is simple and should be well known and within the skill of a person of ordinary skill in the art. In one method the salt is formed in situ within a fully formulated mud by the addition of the acid directly to the mud. Alternatively the amine compound may be neutralized first with acid and then the salt added to the mud. When conducting the neutralization reaction between the amine compound and the acid compound either concentrated or diluted acid may be used. When concentrated acid is utilized, typically a slurry of the salt is formed. When the acid is diluted in water, an aqueous solution containing the amine salt is formed.
# [2] = Hot-Rolling Dispersion in fresh water, Oxford shale; settings: 350 ml freshwater with 10.5 g shale inhibitor, hot rolled 16 hours at 150° F.
# Experimental: (§1) Synthesis of the amine salt was carried out as previously disclosed above. Fresh water was utilized as the base fluid in this example.
# (§2) A hot-rolling dispersion test was conducted using samples of Oxford shale, Foss Eikeland shale and actual shale drilling cutting recovered from a well in the field. […] The resulting mixture was hot rolled for 16 hours at 150° F. After rolling, the remaining shale cuttings were screened from the base fluid using a US 20 mesh screen and washed clean of base fluid with 10% potassium chloride aqueous solution. After drying the samples, they were weighed and the percentage of recovered shale was calculated.
# [3] = Hot-Rolling Dispersion in fresh water, Foss Eikeland shale; settings: 350 ml freshwater with 10.5 g shale inhibitor, hot rolled 16 hours at 150° F.
# Experimental: as §1, §2
# [4] = Hot-Rolling Dispersion in fresh water, field cuttings; settings: 350 ml freshwater with 10.5 g shale inhibitor, hot rolled 16 hours at 150° F.
# Experimental: as §1, §2
# [5] = Bentonite Hydration Study, 50 ppb bentonite (Example 6)
# Experimental: In this procedure a pint jar was filled with one barrel equivalent of tap water and test sample, adjusted the pH to at least 9 and treated with a 50 ppb portion M-I GEL (bentonite) at a medium shear rate. After stirring for 30 minutes, the rheologies were measured and then the samples were heat aged overnight at 150° F. After the samples were cooled their rheologies and pHs were recorded. The following data is representative of how the rheologies are affected by the addition of the 50 ppb of bentonite in tap water treated with the experimental inhibitors.
# [6] = Bentonite inhibition by daily addition of bentonite (Example 7); settings: for 300 rpm Rheologies / 600 rpm Rheologies / 3 rpm Rheologies / 10 Min Gels / Plastic Viscosity / Yield Point: 10 ppb inhibitor; for 300 rpm Rheologies / 600 rpm Rheologies: Heat Aged (150° F.); for 3 rpm Rheologies / 10 Min Gels / Plastic Viscosity / Yield Point: Heat Aged (150°)
# Experimental: This test procedure uses pint jars that are filled with one barrel equivalent of tap water and 10 ppb of a shale inhibitor. Tap water was used as a control sample. All samples were adjusted to at least a pH of 9 and treated with a 10 ppb portion of M-I GEL (bentonite) at a medium shear rate. After stirring for 30 minutes, the rheologies were measured and then the samples were heat aged overnight at 150° F. After the samples were cooled their rheologies and pHs were recorded. All samples were then adjusted to at least a pH 9 before treating them again with bentonite as previously described. This procedure was carried out for each sample until all were too thick to measure.
molecule,measurement,setting,value
CC(=O)O [Acetic acid],Viscosity (centipoises) at pH 9.5,[1],1425 cps
same,Viscosity (centipoises) at pH 10.5,[1],33 cps
same,% recovered,[2],88.0%
same,% recovered,[3],72.4%
same,% recovered,[4],47.6%
COCCOC(C)COC(C)COC(C)COC(C)COC(C)COC(C)COC(C)COC(C)COCC(C)N (stereo not shown) [Jeffamine M-600],"shale hydration inhibition, judgement",[5],performed well as shale hydration inhibitors
same,Gels 10 sec.,[5]; Heat Aged Rheology (150° F.),1 lbs/100 ft^2
same,Gels 10 min.,[5]; Heat Aged Rheology (150° F.),1 lbs/100 ft^2
same,PV,[5]; Heat Aged Rheology (150° F.),16 CPS
same,Rheology 3 RPM,[5]; Heat Aged Rheology (150° F.),1
same,Rheology 6 RPM,[5]; Heat Aged Rheology (150° F.),1
same,Rheology 100 RPM,[5]; Heat Aged Rheology (150° F.),10
same,Rheology 200 RPM,[5]; Heat Aged Rheology (150° F.),17
same,Rheology 300 RPM,[5]; Heat Aged Rheology (150° F.),24
same,Rheology 600 RPM,[5]; Heat Aged Rheology (150° F.),40
same,YP,[5]; Heat Aged Rheology (150° F.),8 lbs/100 ft^2
same,pH,[5]; Heat Aged Rheology (150° F.),11.1
same,Gels 10 sec.,[5]; Initial Rheology,11 lbs/100 ft^2
same,Gels 10 min.,[5]; Initial Rheology,25 lbs/100 ft^2
same,PV,[5]; Initial Rheology,19 CPS
same,Rheology 3 RPM,[5]; Initial Rheology,4
same,Rheology 6 RPM,[5]; Initial Rheology,5
same,Rheology 100 RPM,[5]; Initial Rheology,17
same,Rheology 200 RPM,[5]; Initial Rheology,25
same,Rheology 300 RPM,[5]; Initial Rheology,33
same,Rheology 600 RPM,[5]; Initial Rheology,52
same,YP,[5]; Initial Rheology,14 lbs/100 ft^2
same,pH,[5]; Initial Rheology,11.1
same,300 rpm Rheologies,[6]; Bentonite 30 lb/bbl,9
same,600 rpm Rheologies,[6]; Bentonite 30 lb/bbl,18
same,3 rpm Rheologies,[6]; Bentonite 30 lb/bbl,0
same,10 Min Gels,[6]; Bentonite 30 lb/bbl,0 lbs/100 ft^2
same,Plastic Viscosity,[6]; Bentonite 30 lb/bbl,9 CPS
same,Yield Point,[6]; Bentonite 30 lb/bbl,1 lbs/100 ft^2
same,300 rpm Rheologies,[6]; Bentonite 40 lb/bbl,18
same,600 rpm Rheologies,[6]; Bentonite 40 lb/bbl,35
same,3 rpm Rheologies,[6]; Bentonite 40 lb/bbl,0
same,10 Min Gels,[6]; Bentonite 40 lb/bbl,0 lbs/100 ft^2
same,Plastic Viscosity,[6]; Bentonite 40 lb/bbl,16 CPS
same,Yield Point,[6]; Bentonite 40 lb/bbl,1 lbs/100 ft^2
same,300 rpm Rheologies,[6]; Bentonite 50 lb/bbl,41
same,600 rpm Rheologies,[6]; Bentonite 50 lb/bbl,74
same,3 rpm Rheologies,[6]; Bentonite 50 lb/bbl,0
same,10 Min Gels,[6]; Bentonite 50 lb/bbl,0 lbs/100 ft^2
same,Plastic Viscosity,[6]; Bentonite 50 lb/bbl,33 CPS
same,Yield Point,[6]; Bentonite 50 lb/bbl,8 lbs/100 ft^2
same,300 rpm Rheologies,[6]; Bentonite 60 lb/bbl,71
same,600 rpm Rheologies,[6]; Bentonite 60 lb/bbl,146
same,3 rpm Rheologies,[6]; Bentonite 60 lb/bbl,0
same,10 Min Gels,[6]; Bentonite 60 lb/bbl,0 lbs/100 ft^2
same,Plastic Viscosity,[6]; Bentonite 60 lb/bbl,75 CPS
same,Yield Point,[6]; Bentonite 60 lb/bbl,4 lbs/100 ft^2
same,300 rpm Rheologies,[6]; Bentonite 70 lb/bbl,121
same,600 rpm Rheologies,[6]; Bentonite 70 lb/bbl,259
same,3 rpm Rheologies,[6]; Bentonite 70 lb/bbl,0
same,10 Min Gels,[6]; Bentonite 70 lb/bbl,3 lbs/100 ft^2
same,Plastic Viscosity,[6]; Bentonite 70 lb/bbl,138 CPS
same,Yield Point,[6]; Bentonite 70 lb/bbl,17 lbs/100 ft^2
same,"shale hydration inhibition, judgement",[6]; daily addition of bentonite,performs as a shale hydration inhibitor
O=[N+]([O-])O [Nitric acid],Viscosity (centipoises) at pH 9.5,[1],610 cps
same,Viscosity (centipoises) at pH 10.5,[1],120 cps
same,% recovered,[2],87.6%
same,% recovered,[3],69.1%
same,% recovered,[4],45.7%
O=P(O)(O)O [Phosphoric acid],Viscosity (centipoises) at pH 9.5,[1],slurry
same,Viscosity (centipoises) at pH 10.5,[1],slurry
same,% recovered,[2],87.8%
same,% recovered,[3],69.1%
same,% recovered,[4],42.6%
Citric acid,Viscosity (centipoises) at pH 9.5,[1],2000 cps
same,Viscosity (centipoises) at pH 10.5,[1],180 cps
same,% recovered,[2],87.0%
same,% recovered,[3],78.0%
